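Five compound concentrations were applied to cells in 96-well plates for 48 hours; endpoints were derived by simple linear interpolation of the resulting dose-response curve. Here, GI50 denotes the concentration required for 50% inhibition of growth.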 Calls of active or inactive are those of the source. No stated cut-off is given here; in the data, active = GI50 up to about 1.1 µM and inactive = higher.
What was measured:
Test in all cases: inhibition of tumour cell growth, NCI panel, 48 h
786-0 = system: 786-0
A498 = system: A498
A549 = system: A549
ACHN = system: ACHN
BT-549 = system: BT-549
CAKI-1 = system: CAKI-1
CCRF-CEM = system: CCRF-CEM
COLO 205 = system: COLO 205
DU-145 = system: DU-145
EKVX = system: EKVX
HCC 2998 = system: HCC 2998
HCT-116 = system: HCT-116
HCT-15 = system: HCT-15
HL-60 = system: HL-60
HOP-62 = system: HOP-62
HT-29 = system: HT-29
Hs-578T = system: Hs-578T
IGROV-1 = system: IGROV-1
K562 = system: K562
KM12 = system: KM12
LOX IMVI = system: LOX IMVI
M14 = system: M14
MCF7 = system: MCF7
MDA-MB-231 = system: MDA-MB-231
MDA-MB-435 = system: MDA-MB-435
MDA-N = system: MDA-N
MOLT-4 = system: MOLT-4
Malme-3M = system: Malme-3M
NCI-H226 = system: NCI-H226
NCI-H23 = system: NCI-H23
NCI-H460 = system: NCI-H460
NCI-H522 = system: NCI-H522
NCI/ADR-RES = system: NCI/ADR-RES
OVCAR-3 = system: OVCAR-3
OVCAR-4 = system: OVCAR-4
OVCAR-5 = system: OVCAR-5
OVCAR-8 = system: OVCAR-8
PC-3 = system: PC-3
RPMI-8226 = system: RPMI-8226
RXF 393 = system: RXF 393
SF-268 = system: SF-268
SF-295 = system: SF-295
SF-539 = system: SF-539
SK-MEL-28 = system: SK-MEL-28
SK-MEL-2 = system: SK-MEL-2
SK-MEL-5 = system: SK-MEL-5
SK-OV-3 = system: SK-OV-3
SN12C = system: SN12C
SNB-19 = system: SNB-19
SNB-75 = system: SNB-75
SR = system: SR
SW-620 = system: SW-620
T47D = system: T47D
TK-10 = system: TK-10
U-251 = system: U-251
UACC-257 = system: UACC-257
UACC-62 = system: UACC-62
UO-31 = system: UO-31

Which GI50 (786-0) does the source give for `Cc1cc(=O)[nH]c2c1C(=O)c1c(C)cc(=O)n(C)c1C2=O` here?
The GI50 was 54.5 nM (active).

And the GI50 (A498)?
The GI50 was 214 nM (active).

What about the GI50 (A549) of the same compound?
The GI50 was 188 nM (active).

And the GI50 (ACHN)?
Its GI50 is 99.5 nM (active).

What about the GI50 (BT-549) of the same compound?
Its GI50 is 22.8 nM (active).

And the GI50 (CAKI-1)?
Its GI50 is 67.8 nM (active).

And the GI50 (CCRF-CEM)?
Its GI50 is 321 nM (active).

What about the GI50 (COLO 205) of the same compound?
Its GI50 is 16.2 nM (active).

And the GI50 (DU-145)?
Its GI50 is 23.8 nM (active).

What about the GI50 (EKVX) of the same compound?
The GI50 was 205 nM (active).

What about the GI50 (HCC 2998) of the same compound?
Its GI50 is 26.1 nM (active).

And the GI50 (HCT-116)?
Its GI50 is 100 nM (active).

What about the GI50 (HCT-15) of the same compound?
The GI50 was 123 nM.

And the GI50 (HL-60)?
Its GI50 is 153 nM (active).

And the GI50 (HOP-62)?
The GI50 was 51.4 nM (active).

What about the GI50 (HT-29) of the same compound?
Its GI50 is 43 nM (active).

What about the GI50 (Hs-578T) of the same compound?
The GI50 was 26.2 nM (active).

And the GI50 (IGROV-1)?
The GI50 was 202 nM (active).

And the GI50 (K562)?
The GI50 was 122 nM (active).

What about the GI50 (KM12) of the same compound?
Its GI50 is 67.8 nM (active).

And the GI50 (LOX IMVI)?
The GI50 was 122 nM (active).

What about the GI50 (M14) of the same compound?
The GI50 was 14.7 nM (active).

What about the GI50 (MCF7) of the same compound?
Its GI50 is 16.8 nM (active).

And the GI50 (MDA-MB-231)?
The GI50 was 303 nM (active).

What about the GI50 (MDA-MB-435) of the same compound?
Its GI50 is 14.2 nM (active).

What about the GI50 (MDA-N) of the same compound?
Its GI50 is 18.4 nM (active).

And the GI50 (MOLT-4)?
The GI50 was 212 nM (active).

And the GI50 (Malme-3M)?
The GI50 was 1.77 nM (active).

And the GI50 (NCI-H226)?
Its GI50 is 29.3 nM (active).

What about the GI50 (NCI-H23) of the same compound?
Its GI50 is 14.2 nM (active).

What about the GI50 (NCI-H460) of the same compound?
The GI50 was 187 nM (active).

What about the GI50 (NCI-H522) of the same compound?
The GI50 was 46 nM (active).

What about the GI50 (NCI/ADR-RES) of the same compound?
The GI50 was 88.9 nM (active).

And the GI50 (OVCAR-3)?
The GI50 was 50.8 nM (active).

What about the GI50 (OVCAR-4) of the same compound?
Its GI50 is 195 nM (active).

And the GI50 (OVCAR-5)?
The GI50 was 166 nM (active).

What about the GI50 (OVCAR-8) of the same compound?
The GI50 was 83.2 nM (active).

And the GI50 (PC-3)?
Its GI50 is 157 nM (active).

And the GI50 (RPMI-8226)?
The GI50 was 330 nM (active).

And the GI50 (RXF 393)?
The GI50 was 138 nM (active).

And the GI50 (SF-268)?
Its GI50 is 129 nM (active).

And the GI50 (SF-295)?
Its GI50 is 167 nM (active).

What about the GI50 (SF-539) of the same compound?
The GI50 was 20.8 nM (active).

What about the GI50 (SK-MEL-28) of the same compound?
Its GI50 is 19.1 nM (active).

What about the GI50 (SK-MEL-2) of the same compound?
Its GI50 is 20.8 nM (active).

What about the GI50 (SK-MEL-5) of the same compound?
The GI50 was 15.1 nM (active).

And the GI50 (SK-OV-3)?
The GI50 was 182 nM (active).

What about the GI50 (SN12C) of the same compound?
The GI50 was 74 nM (active).

And the GI50 (SNB-19)?
The GI50 was 18.5 nM (active).

What about the GI50 (SNB-75) of the same compound?
The GI50 was 17.6 nM (active).

What about the GI50 (SR) of the same compound?
Its GI50 is 125 nM (active).

What about the GI50 (SW-620) of the same compound?
The GI50 was 41.9 nM (active).

What about the GI50 (T47D) of the same compound?
The GI50 was 303 nM (active).

What about the GI50 (TK-10) of the same compound?
Its GI50 is 192 nM (active).

What about the GI50 (U-251) of the same compound?
The GI50 was 110 nM (active).

And the GI50 (UACC-257)?
The GI50 was 15.2 nM (active).

And the GI50 (UACC-62)?
Its GI50 is 17.1 nM (active).

What about the GI50 (UO-31) of the same compound?
The GI50 was 167 nM (active).
